In this test the target is T1, human Kv1.3 ion channel (Homo sapiens, UniProt P22001).
T1 construct: Human Jurkat cells (which endogenously express hKv1.3) were used in place of rat L929 cells; endogenous in cells; host or cells: Human Jurkat cells
As to the kind of experiment: Inhibition of Kv1.3 currents, planar patch clamp in Jurkat cells. The format is cell-based. Particulars: Human Jurkat cells (endogenous hKv1.3), averaged dose response data from 3 or more cells. As to the method: Potency of compounds to inhibit the human Kv1.3 ion channel were determined as follows:
EC50 values for inhibition of Kv1.3 currents were determined by the method according to Schmitz et al (2005) Molecular Pharmacology 68, 1254-1270 with the following differences: • 1. Human Jurkat cells (which endogenously express hKv1.3) were used in place of rat L929 cells. • 2. All electrophysiology was performed using planar patch clamp (Port-A-Patch, Nanion Technologies Gmbh, Munich) in contrast to conventional patch clamp. • 3. EC50 values shown were determined from averaged dose response data obtained from 3 or more cells.
For orientation: In patch-clamp work, channel activity is measured electrically.

T1 sequence (P22001 whole entry): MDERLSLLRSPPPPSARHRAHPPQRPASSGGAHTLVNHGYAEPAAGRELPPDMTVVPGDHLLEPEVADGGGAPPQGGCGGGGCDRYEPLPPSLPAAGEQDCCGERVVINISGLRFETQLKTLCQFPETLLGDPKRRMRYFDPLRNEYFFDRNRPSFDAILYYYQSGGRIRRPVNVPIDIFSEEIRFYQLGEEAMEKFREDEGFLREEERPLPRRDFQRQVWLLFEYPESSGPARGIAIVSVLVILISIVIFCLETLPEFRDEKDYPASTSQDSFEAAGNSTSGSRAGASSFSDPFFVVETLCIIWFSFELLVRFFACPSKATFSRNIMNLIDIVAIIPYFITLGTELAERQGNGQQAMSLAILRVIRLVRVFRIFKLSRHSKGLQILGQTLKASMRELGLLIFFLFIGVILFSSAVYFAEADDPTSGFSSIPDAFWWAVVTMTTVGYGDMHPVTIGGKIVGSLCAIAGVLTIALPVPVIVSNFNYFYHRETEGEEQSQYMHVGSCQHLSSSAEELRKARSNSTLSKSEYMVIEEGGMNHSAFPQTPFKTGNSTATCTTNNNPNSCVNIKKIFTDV

Regarding `COc1c(C(C)=O)c(OCCCS(=O)(=O)c2ccccc2)c(OC)c2occc12` [Example 10, 5-Acetyl-4,7-dimethoxy-6-(3-(benzenesulfonyl)propoxy)benzofuran], the response was half-maximal at 1510 nM (EC50). In other words, the single-digit micromolar range.
With `COc1c(C(C)=O)c(OCCNc2ccccc2)c(OC)c2occc12` [Example 11, 5-Acetyl-4,7-dimethoxy-6-(2-(phenylamino)ethoxy)benzofuran] the figure was 980 nM; with `COc1c(C(C)=O)c(OCCCNc2ccccc2)c(OC)c2occc12` [Example 12, 5-Acetyl-4,7-dimethoxy-6-(3-(phenylamino)propoxy)benzofuran], 690 nM; with `COc1c(C(C)=O)c(OCCN2CCOCC2)c(OCCCc2ccccc2)c2occc12` [Example 16, 5-Acetyl-6-(2-morpholinoethoxy)-4-methoxy-7-(3-phenylpropoxy)benzofuran], 110 nM.
With `COc1c(C(C)=O)c(OCCn2ccnc2)c(OCCCc2ccccc2)c2occc12` [Example 17, 5-Acetyl-6-(2-imidazol-1-ylethoxy)-4-methoxy-7-(3-phenylpropoxy)benzofuran] the figure was 81 nM.
As to `CC(=O)c1c(OCCN2CCOCC2)c(OCCCc2ccccc2)c2occc2c1C` [Example 19, 5-Acetyl-6-(2-morpholinoethoxy)-4-methyl-7-(3-phenylpropoxy)benzofuran], the EC50 (in general, the concentration at which the effect is half-maximal) stood at 51 nM.
With `CCOC(=O)CC(=O)c1c(OCCN2CCOCC2)cc2occc2c1OCCCCOc1ccccc1` [Example 24, 3-[6-(2-Morpholin-4-ylethoxy)-4-(4-phenoxybutoxy)benzofuran-5-yl]-3-oxo-propionic acid ethyl ester] the figure was 590 nM; with `CC(=O)c1c(OCCN(C)C)cc2occc2c1OCCCCOc1ccccc1` [Example 25, 5-Acetyl-6-(2-dimethylamino-ethoxy)-4-(4-phenoxybutoxy)benzofuran], 600 nM; with `CC(=O)c1c(OCCN2CCN(C)CC2)c(OCCCc2ccccc2)c2occc2c1C` [Example 26], 140 nM.
In the case of `CC(=O)c1c(OCCCn2ccnc2)c(OCCCc2ccccc2)c2occc2c1C` [Example 29, 5-Acetyl-6-(3-imidazol-1-yl-propoxy)-4-methyl-7-(3-phenylpropoxy)-benzofuran] it was 136 nM; in that of `CC(=O)c1c(OCCCCn2ccnc2)c(OCCCc2ccccc2)c2occc2c1C` [Example 30, 5-Acetyl-6-(4-imidazol-1-yl-butoxy)-4-methyl-7-(3-phenylpropoxy)-benzofuran], 120 nM.
In turn, `CC(=O)c1c(OCCOc2cnccn2)c(OCCCc2ccccc2)c2occc2c1C` [Example 31b, 1-{4-Methyl-7-(3-phenyl-propoxy)-6-[2-(pyrazin-2-yloxy)-ethoxy]-benzofuran-5-yl}-ethanone] showed an EC50 of 81 nM. This EC50 and that of the compound before are within 1.5-fold of each other.
In the case of `CC(=O)c1c(OCCNC2CCCC2)c(OCCCc2ccccc2)c2occc2c1C` [Example 32, 1-[6-(2-Cyclopentylamino-ethoxy)-4-methyl-7-(3-phenyl-propoxy)-benzofuran-5-yl]-ethanone] it was 49 nM; in that of `CC(=O)c1c(OCCN2CCCCC2)c(OCCCc2ccccc2)c2occc2c1C` [Example 33, 1-[4-Methyl-7-(3-phenyl-propoxy)-6-(2-piperidin-1-yl-ethoxy)-benzofuran-5-yl]-ethanone], 343 nM; in that of `CC(=O)c1c(OCCN2CCCC2)c(OCCCc2ccccc2)c2occc2c1C` [Example 34, 1-[4-Methyl-7-(3-phenyl-propoxy)-6-(2-pyrrolidin-1-yl-ethoxy)-benzofuran-5-yl]-ethanone], 223 nM.
With `CC(=O)c1c(OCCn2nccn2)c(OCCCc2ccccc2)c2occc2c1C` [Example 35, 1-[4-Methyl-7-(3-phenyl-propoxy)-6-(2-[1,2,3]triazol-2-yl-ethoxy)-benzofuran-5-yl]ethanone] the figure was 100 nM.
Turning to `CC(=O)c1c(OCCn2ccnn2)c(OCCCc2ccccc2)c2occc2c1C` [Example 36, 1-[4-Methyl-7-(3-phenyl-propoxy)-6-(2-[1,2,3]triazol-1-yl-ethoxy)-benzofuran-5-yl]-ethanone], the concentration for a half-maximal effect (EC50) came to 122 nM.
In the case of `CC(=O)c1c(OCCn2cncn2)c(OCCCc2ccccc2)c2occc2c1C` [Example 37, 1-[4-Methyl-7-(3-phenyl-propoxy)-6-(2-[1,2,4]triazol-1-yl-ethoxy)-benzofuran-5-yl]-ethanone], a half-maximal response (EC50) required 74 nM.
Compound `CC(=O)c1c(OCCNCCO)c(OCCCc2ccccc2)c2occc2c1C` [Example 39, 5-Acetyl-6-(2-(2-Hydroxy-ethylamino)-ethoxy)-4-methyl-7-(3-phenylpropoxy)-benzofuran] showed an EC50 of 576 nM.
`CC(=O)c1c(OCCc2ccccn2)c(OCCCc2ccccc2)c2occc2c1C` [Example 40, 5-Acetyl-4-methyl-7-(3-phenylpropoxy)-6-(2-pyridin-2-yl-ethoxy)benzofuran] had an EC50 of 66 nM.
As to `CC(=O)c1c(OCCN2CCOCC2)c(OCCCc2ccccc2)c2oc(Cl)cc2c1C` [Example 41, 1-[2-Chloro-4-methyl-6-(2-morpholin-4-yl-ethoxy)-7-(3-phenyl-propoxy)-benzofuran-5-yl]-ethanone], the response was half-maximal at 215 nM (EC50). This EC50 is about 3.3-fold higher than that of the compound before.
In the case of `CC(=O)c1c(OCC(=O)N2CCOCC2)c(OCCCc2ccccc2)c2occc2c1C` [Example 42, 2-[5-Acetyl-4-methyl-7-(3-phenyl-propoxy)-benzofuran-6-yloxy]-1-morpholin-4-yl-ethanone] it was 480 nM; in that of `Cc1cc(=O)c2c(C)c3ccoc3c(OCCOc3ccc(F)cc3)c2o1` [Example 43b, 9-[2-(4-Fluoro-phenoxy)-ethoxy]-4,7-dimethyl-furo[3,2-g]chromen-5-one], 229 nM; in that of `CC(=O)c1c(O)c(OCCOc2ccc(F)cc2)c2occc2c1C` [Example 43c, 5-Acetyl-7-(2-(4-fluorophenoxy)-ethoxy)-6-hydroxy-4-methylbenzofuran], 954 nM.
`CC(=O)c1c(OCCN2CCOCC2)c(OCCOc2ccc(F)cc2)c2occc2c1C` [Example 43e, 1-[7-[2-(4-Fluoro-phenoxy)-ethoxy]-4-methyl-6-(2-morpholin-4-yl-ethoxy)-benzofuran-5-yl]-ethanone] returned an EC50 of 286 nM.
Take `CC(=O)c1c(OCCc2ccccn2)c(OCCC(C)c2ccc(F)cc2)c2occc2c1C` (stereo not drawn) [Example 44d, 5-Acetyl-7-(3-[4-fluorophenyl]butoxy)-4-methyl-6-(2-pyridin-2-yl-ethoxy)benzofuran]: the EC50 was determined as 22 nM.
With `CC(=O)c1c(OCCNC2CCCC2)c(OCCC(C)c2ccc(F)cc2)c2occc2c1C` (stereo not drawn) [Example 45b, 5-Acetyl-7-(3-[4-fluorophenyl]butoxy)-4-methyl-6-(2-Cyclopentylamino-ethoxy)benzofuran] the figure was 43 nM; with `CC(=O)c1c(O)c(OCCCc2ccc(F)cc2)c2occc2c1C` [Example 47a, 5-Acetyl-7-(3-(4-fluorophenyl)propoxy)-6-hydroxy-4-methylbenzofuran], 531 nM.
With `CC(=O)c1c(OCCN2CCOCC2)c(OCCCc2ccc(F)cc2)c2occc2c1C` [Example 47b, 5-Acetyl-7-(3-(4-fluorophenyl)propoxy)-4-methyl-6-(2-morpholinoethoxy)benzofuran] the figure was 74 nM; with `CC(=O)c1c(OCCNC2CCCC2)c(OCCCc2ccc(F)cc2)c2occc2c1C` [Example 48, 1-[6-(2-Cyclopentylamino-ethoxy)-4-methyl-7-(3-(4-fluoro-phenyl)-propoxy)-benzofuran-5-yl]-ethanone], 47 nM.
In the case of `CC(=O)c1c(O)c(OCCC(C)c2ccccc2)c2occc2c1C` (stereo not drawn) [Example 50a, 1-[6-Hydroxy-4-methyl-7-(3-RS-phenylbutoxy)-benzofuran-5-yl]-ethanone] it was 423 nM; in that of `CC(=O)c1c(OCCN2CCOCC2)c(OCCC(C)c2ccccc2)c2occc2c1C` (stereo not drawn) [Example 50b, 1-[4-Methyl-6-(2-morpholin-4-yl-ethoxy)-7-(3-phenyl-butoxy)-benzofuran-5-yl]-ethanone], 16 nM; in that of `CC(=O)c1c(OCCN2CCOCC2)c(OCC[C@@H](C)c2ccccc2)c2occc2c1C` [Example 51, 1-[4-Methyl-6-(2-morpholin-4-yl-ethoxy)-7-(3-phenyl-butoxy)-benzofuran-5-yl]-ethanone], 18 nM.
`CC(=O)c1c(OCCNC2CCCC2)c(OCCC(C)c2ccccc2)c2occc2c1C` (stereo not drawn) [Example 53, 1-[6-(2-Cyclopentylamino-ethoxy)-4-methyl-7-(3-phenyl-butoxy)-benzofuran-5-yl]-ethanone] gave an EC50 of 23 nM.
With `CC(=O)c1c(OCCCC#N)c(OCCCc2ccccc2)c2occc2c1C` [Example 54a, 5-Acetyl-6-(3-cyanopropoxy)-4-methyl-7-(3-phenylpropoxy)benzofuran] the figure was 160 nM; with `CC(=O)c1c(OCCCc2nnn[nH]2)c(OCCCc2ccccc2)c2occc2c1C` [Example 54b, 5-Acetyl-6-(3-(1H-tetrazol-5-yl)-propoxy)-4-methyl-7-(3-phenylpropoxy)benzofuran], 1600 nM.
`CC(=O)c1c(OCCc2nnn[nH]2)c(OCCCc2ccccc2)c2occc2c1C` [Example 55, 5-Acetyl-6-(3-(1H-tetrazol-5-yl)-ethoxy)-4-methyl-7-(3-phenylpropoxy)benzofuran] yielded an EC50 of 6600 nM. This EC50 is about 4.1-fold higher than that of the compound before.
With `CC(=O)c1c(OCCN2CCOCC2)c(OCC(C)(C)Cc2ccccc2)c2occc2c1C` [Example 56b, 5-Acetyl-7-(2,2-dimethyl-3-phenylpropoxy)-4-methyl-6-(2-morpholinoethoxy)benzofuran] the figure was 362 nM; with `CC(=O)c1c(OCCN2CCOCC2)c(OC(C)CCc2ccccc2)c2occc2c1C` (stereo not drawn) [Example 57b, 1-[4-Methyl-7-(1-RS-methyl-3-phenyl-propoxy)-6-(2-morpholin-4-yl-ethoxy)-benzofuran-5-yl]-ethanone], 159 nM.

The values above are taken from patent US8309545B2, “Benzofuran potassium channel blockers and uses thereof” (Bionomics Limited, priority 2006, dated 2012).
